Data set [1] relates to Mycobacterium tuberculosis. Kind of data set: microbe, parasite or virus in culture. The note with it: H37Rv ATCC 25618, 144 h.
Description: Antimycobacterial activity against Mycobacterium tuberculosis H37Rv ATCC 25618 after 6 days by resazurin dye based assay
The nature of data set [2]: Permeability of the compound by PAMPA. Type of data set: physicochemical. The note with it: read-out: permeability. Background: PAMPA measures passive passage across an artificial lipid membrane.
The test system of data set [3] is HepG2. Kind of data set: Cytotoxicity against human HepG2 cells assessed as reduction in cell viability after 48 hrs by CellTiter Glo assay. Type of data set: cell-based. The note with it: HepG2, 48 h.
A short description of data set [4]: Kinetic aqueous solubility of the compound by chemiluminescent nitrogen detection assay. Type of data set: physicochemical. The note with it: read-out: Kinetic_solubility.
Data set [5] in a line: Lipophilicity, log D of the compound at pH 7.4 by chromatographic method. Type of data set: physicochemical. The note with it: buffer.

The record followed here is ChEMBL document CHEMBL4041504, “Differential characterization using readily accessible NMR experiments of novel N- and O-alkylated quinolin-4-ol, 1,5-naphthyridin-4-ol and quinazolin-4-ol derivatives with antimycobacterial activity” (Eur J Med Chem, 2017).

In brackets after ≈: the same amount, converted by molar mass.

By IC50 is commonly meant the point on the concentration scale where inhibition reaches its midpoint. As a reminder, the chromatographic logD is lipophilicity estimated from chromatographic retention. Read a high chromatographic logD as higher lipophilicity. Turning to `Cc1cc(C)cc(NC(=O)Cn2ccc(=O)c3ccccc32)c1`, the MIC in data set [1] is more than 250 µM. For the same molecule, the Papp in data set [2] worked out at 45 ×10⁻⁶ cm/s. Further, in data set [3], the IC50 was 63.1 µM. Moreover, the solubility kinetic in data set [4] was found to be 34 µM (≈ 10.4 µg/mL). The molecule further gave a chromatographic logD in data set [5] of 3.54.

Consider `Cc1cc(C)cc(NC(=O)Cn2ccc(=O)c3ccc(Cl)cc32)c1`, for which the MIC in data set [1] is more than 250 µM. In addition, the Papp in data set [2] stood at 26 ×10⁻⁶ cm/s. The IC50 in data set [3] was 100 µM. In addition, the solubility kinetic in data set [4] was 86 µM (≈ 29.3 µg/mL). Also, the chromatographic logD in data set [5] stood at 4.39.

As for `Cc1cc(C)cc(NC(=O)Cn2cnc3ccccc3c2=O)c1`, in data set [1], the MIC is more than 250 µM. The Papp in data set [2] came out at 60 ×10⁻⁶ cm/s. Moreover, the IC50 in data set [3] is 79.4 µM. Moreover, the solubility kinetic in data set [4] amounted to 20 µM (≈ 6.15 µg/mL). The molecule further yielded a chromatographic logD in data set [5] of 4.29.

`COc1ccc2nc(C)cc(OCC(=O)Nc3cc(C)cc(C)c3)c2c1` displayed an MIC in data set [1] of 1.9 µM (≈ 0.666 µg/mL). Besides, the 50% inhibitory concentration (IC50) in data set [3] was 20 µM.

For the molecule `COc1ccc2c(c1)c(=O)ccn2CC(=O)Nc1cc(C)cc(C)c1`, the MIC in data set [1] is more than 250 µM. In addition, the Papp in data set [2] stood at 19 ×10⁻⁶ cm/s. Moreover, in data set [3], the IC50 is more than 100 µM. Also, the solubility kinetic in data set [4] worked out at 30 µM (≈ 10.1 µg/mL). The molecule further displayed a chromatographic logD in data set [5] of 3.72.

Molecule `COc1ccc2nc(C)n(CC(=O)Nc3cc(C)cc(C)c3)c(=O)c2c1` registered an MIC in data set [1] of 250 µM (≈ 87.9 µg/mL). For the same molecule, the Papp in data set [2] was 58 ×10⁻⁶ cm/s. Moreover, the half-maximal inhibitory concentration (IC50) in data set [3] is more than 100 µM. The solubility kinetic in data set [4] came out at 74 µM (≈ 26 µg/mL). This molecule came in with a chromatographic logD in data set [5] of 4.77.

In turn, `Cc1cc(C)cc(NC(=O)COc2ccnc3ccccc23)c1` yielded an MIC in data set [1] of more than 80 µM. Moreover, the Papp in data set [2] was 46 ×10⁻⁶ cm/s. Moreover, the 50% inhibitory concentration (IC50) in data set [3] is more than 100 µM. Also, the solubility kinetic in data set [4] was 59 µM (≈ 18.1 µg/mL). Besides, in data set [5], the chromatographic logD was determined as 5.03.

In turn, `NNC(=O)c1ccncc1` [ISONIAZID] registered an MIC in data set [1] of 3.6 µM (≈ 0.494 µg/mL).

`COc1ccc2nc(C)nc(OCC(=O)Nc3cc(C)cc(C)c3)c2c1`: the MIC in data set [1] stood at 1.25 µM (≈ 0.439 µg/mL). Besides, in data set [2], the Papp is 37 ×10⁻⁶ cm/s. Moreover, the IC50 in data set [3] is more than 100 µM. Moreover, the solubility kinetic in data set [4] was found to be 3 µM (≈ 1.05 µg/mL). This molecule displayed a chromatographic logD in data set [5] of 5.59.

Molecule `COc1ccc2nccc(OCC(=O)Nc3cc(C)cc(C)c3)c2c1` yielded an MIC in data set [1] of 10 µM (≈ 3.36 µg/mL). Further, the Papp in data set [2] is 28 ×10⁻⁶ cm/s. Besides, the concentration for half-maximal inhibition (IC50) in data set [3] was 50.1 µM. The solubility kinetic in data set [4] amounted to 51 µM (≈ 17.2 µg/mL). The molecule further gave a chromatographic logD in data set [5] of 5.3.

Molecule `COc1ccc2nc(C)cc(OCC(=O)Nc3cc(C)cc(C)c3)c2n1` displayed an MIC in data set [1] of 3.8 µM (≈ 1.34 µg/mL). Moreover, in data set [2], the Papp came to 51 ×10⁻⁶ cm/s. Further, the IC50 in data set [3] is more than 100 µM. For the same molecule, the solubility kinetic in data set [4] came out at 19 µM (≈ 6.68 µg/mL). The chromatographic logD in data set [5] stood at 5.57.

Consider `COc1ccc2ncn(CC(=O)Nc3cc(C)cc(C)c3)c(=O)c2c1`, for which the MIC in data set [1] was more than 250 µM. For the same molecule, in data set [3], the IC50 is more than 100 µM. Further, the solubility kinetic in data set [4] came to 8 µM (≈ 2.7 µg/mL). Besides, the chromatographic logD in data set [5] was 4.5.
